pIC50, pKi: −log10 of the molar value.
Assays:
[1] = target: T1, Alpha-2C adrenergic receptor (Homo sapiens, UniProt P18825); experiment: DRUGMATRIX: Adrenergic Alpha-2C radioligand binding (ligand: [3H] MK-912); format: cell membranes, Sf9, Membrane; on pIC50: call rule not given here
T1 sequence (P18825 whole entry): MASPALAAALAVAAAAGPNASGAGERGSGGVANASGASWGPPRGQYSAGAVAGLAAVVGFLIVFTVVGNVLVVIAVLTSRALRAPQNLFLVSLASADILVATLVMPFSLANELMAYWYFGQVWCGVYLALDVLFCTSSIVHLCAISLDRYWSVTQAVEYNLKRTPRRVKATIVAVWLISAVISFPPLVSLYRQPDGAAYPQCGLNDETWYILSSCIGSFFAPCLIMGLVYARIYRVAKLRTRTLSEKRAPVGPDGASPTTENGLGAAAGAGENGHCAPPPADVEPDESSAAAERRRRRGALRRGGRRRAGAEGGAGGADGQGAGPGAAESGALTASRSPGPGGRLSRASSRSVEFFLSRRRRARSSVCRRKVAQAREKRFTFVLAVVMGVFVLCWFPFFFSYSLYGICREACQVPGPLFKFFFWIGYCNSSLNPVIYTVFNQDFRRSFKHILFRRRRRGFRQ

[2] = target: T2, C-X-C chemokine receptor type 1 (Homo sapiens, UniProt P25024); further: in other assays of this panel Not Active means under 50% inhibition at 10 µM
T2 sequence (P25024 whole entry): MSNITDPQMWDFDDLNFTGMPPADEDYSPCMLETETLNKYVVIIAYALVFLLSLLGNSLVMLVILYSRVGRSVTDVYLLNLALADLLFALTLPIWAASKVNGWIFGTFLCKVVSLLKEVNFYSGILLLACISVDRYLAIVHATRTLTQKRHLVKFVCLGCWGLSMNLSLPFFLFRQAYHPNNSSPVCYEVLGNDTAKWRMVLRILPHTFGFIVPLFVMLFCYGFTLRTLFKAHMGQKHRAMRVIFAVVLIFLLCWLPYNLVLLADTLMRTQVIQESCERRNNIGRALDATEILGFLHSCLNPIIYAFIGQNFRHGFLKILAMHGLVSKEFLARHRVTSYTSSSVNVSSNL

[3] = target: Prostaglandin G/H synthase 1 (Homo sapiens, UniProt P23219); experiment: biochemical; format: tissue-based, Platelet;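 further: inhibition of COX-1 enzyme activity, with arachidonic acid supplied as substrate; in other assays of this panel Not Active means under 50% inhibition at 10 µM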
[4] = target: D(3) dopamine receptor (Homo sapiens, UniProt P35462); experiment: DRUGMATRIX: Dopamine D3 radioligand binding (ligand: [3H] Spiperone); format: cell membranes, CHO, Membrane; conditions: cho
[5] = target: T3, Muscarinic acetylcholine receptor M4 (Homo sapiens, UniProt P08173); format: cell membranes, CHO-K1, Membrane; conditions: cho-k1; further: in other assays of this panel Not Active means under 50% inhibition at 10 µM
T3 sequence (P08173 whole entry): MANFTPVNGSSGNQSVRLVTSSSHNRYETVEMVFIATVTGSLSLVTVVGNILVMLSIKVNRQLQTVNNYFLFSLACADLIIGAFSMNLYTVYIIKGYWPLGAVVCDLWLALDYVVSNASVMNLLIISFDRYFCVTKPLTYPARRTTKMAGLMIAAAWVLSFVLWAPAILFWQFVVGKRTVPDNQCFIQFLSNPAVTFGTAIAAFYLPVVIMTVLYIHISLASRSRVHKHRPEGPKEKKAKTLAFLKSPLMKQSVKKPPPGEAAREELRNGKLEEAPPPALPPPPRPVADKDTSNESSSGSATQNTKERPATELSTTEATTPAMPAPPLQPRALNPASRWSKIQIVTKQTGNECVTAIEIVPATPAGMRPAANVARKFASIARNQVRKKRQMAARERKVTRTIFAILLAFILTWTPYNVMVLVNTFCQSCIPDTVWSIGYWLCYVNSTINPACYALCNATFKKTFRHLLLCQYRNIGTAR

[6] = target: T4, Cytochrome P450 2A6 (Homo sapiens, UniProt P11509); conditions: bti-tn-5b1-4; further: in other assays of this panel Not Active means under 50% inhibition at 10 µM
T4 sequence (P11509 whole entry): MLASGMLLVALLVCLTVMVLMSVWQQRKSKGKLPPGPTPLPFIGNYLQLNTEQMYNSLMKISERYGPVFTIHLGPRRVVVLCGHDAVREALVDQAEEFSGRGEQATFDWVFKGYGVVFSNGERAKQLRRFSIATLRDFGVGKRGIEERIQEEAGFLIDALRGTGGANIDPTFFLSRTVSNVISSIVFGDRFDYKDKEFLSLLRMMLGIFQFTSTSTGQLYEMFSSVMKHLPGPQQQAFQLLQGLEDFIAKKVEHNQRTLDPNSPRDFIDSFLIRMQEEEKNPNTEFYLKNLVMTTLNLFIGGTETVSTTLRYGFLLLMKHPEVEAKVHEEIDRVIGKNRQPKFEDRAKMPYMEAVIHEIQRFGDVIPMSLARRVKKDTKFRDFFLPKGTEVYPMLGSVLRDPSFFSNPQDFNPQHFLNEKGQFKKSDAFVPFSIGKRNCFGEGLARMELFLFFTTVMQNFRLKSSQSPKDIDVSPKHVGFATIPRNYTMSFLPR

Prostaglandin G/H synthase 1, sequence (P23219 whole entry): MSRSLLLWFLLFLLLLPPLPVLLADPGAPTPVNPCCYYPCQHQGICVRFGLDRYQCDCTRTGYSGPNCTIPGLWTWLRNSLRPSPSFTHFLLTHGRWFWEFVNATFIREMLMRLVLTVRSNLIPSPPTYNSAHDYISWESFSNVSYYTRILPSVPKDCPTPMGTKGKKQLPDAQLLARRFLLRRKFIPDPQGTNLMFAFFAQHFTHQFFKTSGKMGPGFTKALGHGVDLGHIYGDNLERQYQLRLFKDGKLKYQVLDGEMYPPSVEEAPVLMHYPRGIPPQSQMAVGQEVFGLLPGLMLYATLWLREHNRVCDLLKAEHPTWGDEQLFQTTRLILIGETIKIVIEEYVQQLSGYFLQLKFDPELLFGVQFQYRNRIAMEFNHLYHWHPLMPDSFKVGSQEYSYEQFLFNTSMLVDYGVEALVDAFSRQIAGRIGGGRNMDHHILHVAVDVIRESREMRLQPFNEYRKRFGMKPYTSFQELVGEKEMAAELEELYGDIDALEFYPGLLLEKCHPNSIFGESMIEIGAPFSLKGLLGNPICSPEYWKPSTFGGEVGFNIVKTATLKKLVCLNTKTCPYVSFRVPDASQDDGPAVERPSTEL
D(3) dopamine receptor, sequence (P35462 whole entry): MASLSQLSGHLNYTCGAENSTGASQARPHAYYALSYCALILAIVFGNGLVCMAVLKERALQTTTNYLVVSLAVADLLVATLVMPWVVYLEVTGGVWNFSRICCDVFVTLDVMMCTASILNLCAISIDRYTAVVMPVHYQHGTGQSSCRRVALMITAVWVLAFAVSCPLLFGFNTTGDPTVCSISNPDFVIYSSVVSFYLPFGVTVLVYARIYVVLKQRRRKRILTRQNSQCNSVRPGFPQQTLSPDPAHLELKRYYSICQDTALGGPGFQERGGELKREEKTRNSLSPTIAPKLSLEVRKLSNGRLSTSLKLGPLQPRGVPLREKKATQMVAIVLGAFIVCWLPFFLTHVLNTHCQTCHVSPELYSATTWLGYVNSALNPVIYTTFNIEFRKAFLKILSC

| Structure (SMILES) | IC50 ([1]; sf9) | IC50 [2] | IC50 ([3]; platelet) | IC50 [4] | IC50 [5] | IC50 [6] | Ki [6] | pIC50 ([3]; read-out: IC50) | Ki ([1]; sf9) | Ki [2] | Ki ([3]; platelet) | Ki [4] | Ki [5] | pIC50 [1] | pKi ([1]; read-out: Ki) |
| --- | --- | --- | --- | --- | --- | --- | --- | --- | --- | --- | --- | --- | --- | --- | --- |
| CC(C)CN(C[C@@H](O)[C@H](Cc1ccccc1)NC(=O)O[C@H]1CCOC1)S(=O)(=O)c1ccc(N)cc1 | Not Active | Not Active | Not Active | Not Active | Not Active | Not Active | Not Active |  |  |  |  |  |  |  |  |
| c1ccc(Nc2ccc(Nc3ccccc3)cc2)cc1 | Not Active | Not Active |  | Not Active | Not Active | Not Active | Not Active | 6.59 |  |  |  |  |  |  |  |
| COc1cc2c3cc1Oc1cc(ccc1O)C[C@@H]1c4c(cc(OC)c(O)c4Oc4ccc(cc4)C[C@@H]3N(C)CC2)CC[N+]1(C)C.[Cl-] | Not Active | Not Active | Not Active | Not Active | Not Active | Not Active | Not Active |  |  |  |  |  |  |  |  |
| NC(=O)N1c2ccccc2CCc2ccccc21 | Not Active | Not Active | Not Active | Not Active | Not Active | Not Active | Not Active |  |  |  |  |  |  |  |  |
| O=C1CC[C@@H](N2C(=O)c3ccccc3C2=O)C(=O)N1 | Not Active | Not Active | Not Active | Not Active | Not Active | Not Active | Not Active |  |  |  |  |  |  |  |  |
| Cc1onc(O)c1CC(N)C(=O)O (racemic) [(R,S)-AMPA] | Not Active | Not Active | Not Active | Not Active | Not Active | Not Active | Not Active |  |  |  |  |  |  |  |  |
| Cc1ccc2cc3c(ccc4ccccc43)c3c2c1CC3 [3-METHYLCHOLANTHRENE] | Not Active | Not Active | Not Active | Not Active | Not Active | Not Active | Not Active |  |  |  |  |  |  |  |  |
| CC[C@@]1(O)C[C@H](O[C@H]2C[C@H](N(C)C)[C@H](O[C@H]3C[C@H](O)[C@H](O[C@H]4CCC(=O)[C@H](C)O4)[C@H](C)O3)[C@H](C)O2)c2c(cc3c(c2O)C(=O)c2c(O)cccc2C3=O)[C@H]1C(=O)OC [ACLARUBICIN] | Not Active | Not Active | Not Active | Not Active | Not Active | Not Active | Not Active |  |  |  |  |  |  |  |  |
| Nc1nc2c(ncn2COCCO)c(=O)[nH]1 [ACYCLOVIR] | Not Active | Not Active | Not Active | Not Active | Not Active | Not Active | Not Active |  |  |  |  |  |  |  |  |
| Cc1c(C)c2c(c(C)c1O)CC[C@@](C)(CCC[C@H](C)CCC[C@H](C)CCCC(C)C)O2 [ALPHA-TOCOPHEROL] | Not Active | Not Active | Not Active | Not Active | Not Active | Not Active | Not Active |  |  |  |  |  |  |  |  |
| CN(C)c1nc(N(C)C)nc(N(C)C)n1 [ALTRETAMINE] | Not Active | Not Active | Not Active | Not Active | Not Active |  |  |  |  |  |  |  |  |  |  |
| Nc1c(Br)cc(Br)cc1CN[C@H]1CC[C@H](O)CC1 [AMBROXOL] | Not Active | Not Active | Not Active | Not Active | Not Active |  |  |  |  |  |  |  |  |  |  |
| NCCCCCC(=O)O [AMINOCAPROIC ACID] | Not Active | Not Active | Not Active | Not Active | Not Active | Not Active | Not Active |  |  |  |  |  |  |  |  |
| CCC1(c2ccc(N)cc2)CCC(=O)NC1=O (stereo not given) [AMINOGLUTETHIMIDE] | Not Active | Not Active | Not Active | Not Active | Not Active | Not Active | Not Active |  |  |  |  |  |  |  |  |
| Cc1ccc(/N=C/N(C)/C=N/c2ccc(C)cc2C)c(C)c1 [AMITRAZ] | Not Active | Not Active | Not Active | Not Active | Not Active | Not Active | Not Active |  |  |  |  |  |  |  |  |
| CCOC(=O)C1=C(COCCN)NC(C)=C(C(=O)OC)C1c1ccccc1Cl (stereo not given) [AMLODIPINE] |  | Not Active | Not Active | Not Active | Not Active | Not Active | Not Active |  |  |  |  |  |  |  |  |
| COc1ccc(C[C@H]2NC[C@H](O)[C@H]2OC(C)=O)cc1 [ANISOMYCIN] | Not Active | Not Active | Not Active | Not Active | Not Active | Not Active | Not Active |  | Not Active | Not Active | Not Active | Not Active | Not Active |  |  |
| Nc1ncn([C@@H]2O[C@H](CO)[C@@H](O)[C@H]2O)c(=O)n1 [AZACITIDINE] | Not Active | Not Active | Not Active | Not Active | Not Active | Not Active | Not Active |  |  |  |  |  |  |  |  |
| CN(C)C(=O)Oc1cc(OC(=O)N(C)C)cc(C(O)CNC(C)(C)C)c1 (stereo not given) [BAMBUTEROL] | Not Active | Not Active | Not Active | Not Active | Not Active | Not Active | Not Active |  |  |  |  |  |  |  |  |
| c1ccc2c(c1)c1cccc3ccc4cccc2c4c31 [BENZO[E]PYRENE] | Not Active | Not Active | Not Active | Not Active | Not Active | Not Active | Not Active |  |  |  |  |  |  |  |  |
| CNCCc1ccccn1 [BETAHISTINE] | Not Active | Not Active | Not Active | Not Active | Not Active | Not Active | Not Active |  |  |  |  |  |  |  |  |
| Cc1ccc(-c2cc(C(F)(F)F)nn2-c2ccc(S(N)(=O)=O)cc2)cc1 [CELECOXIB] | Not Active | Not Active |  | Not Active | Not Active | Not Active | Not Active |  |  |  |  |  |  |  |  |
| CN(C)CCCN1c2ccccc2Sc2ccc(Cl)cc21 [CHLORPROMAZINE] |  | Not Active | Not Active |  |  | Not Active | Not Active |  |  |  |  |  |  |  |  |
| C[C@]12CC[C@@H]3c4ccc(O)cc4CC[C@H]3[C@@H]1CCC2=O [ESTRONE] | Not Active | Not Active | Not Active | Not Active | Not Active |  |  |  |  |  |  |  |  |  |  |
| N=C(N)NCCN1CCCCCCC1 [GUANETHIDINE] | Not Active | Not Active | Not Active | Not Active | Not Active |  |  |  |  |  |  |  |  |  |  |
| CC1(C)S[C@@H]2[C@H](NC(=O)Cc3ccccc3)C(=O)N2[C@H]1C(=O)O [PENICILLIN G] | Not Active | Not Active | Not Active | Not Active | Not Active |  |  |  |  |  |  |  |  |  |  |
| CCCN1C[C@H](CSC)C[C@@H]2c3cccc4[nH]cc(c34)C[C@H]21 [PERGOLIDE] |  | Not Active | Not Active |  | Not Active | Not Active | Not Active |  |  |  |  |  |  | 5.85 | 6.69 |
| Cc1ccc(N(CC2=NCCN2)c2cccc(O)c2)cc1 [PHENTOLAMINE] |  | Not Active | Not Active | Not Active | Not Active | Not Active | Not Active |  |  |  |  |  |  |  |  |

Source: ChEMBL document CHEMBL1909046, “DrugMatrix in vitro pharmacology data”
